Among the data in US20260250289A1, “BICYCLIC HETEROCYCLES AND THEIR USE AS WRN INHIBITORS” (Novartis AG, priority 2022, published 2026) are IC50 and GI50 values, retold here.

Assay [1] addresses T1, WRN helicase (aa N517-P1238) (Homo sapiens, UniProt Q14191).
T1 construct: The core helicase motif of the WRN protein (aa N517-P1238) was produced for this assay; His (N); ZZ (N); 3C protease cleavage site (N); made in house; host or cells: Sf21 insect cells (baculovirus; virus and BIICs made in SF9)
In words: WRN ATPase assay (DNA dependent ATP hydrolysis, ADP-Glo). The conditions noted are these: 3 hours pre-incubation, 300 micromolar ATP, FLAP26 DNA; geometric mean of at least 2. It counts as biochemical. The source says: An ATPase assay was set up to measure the DNA dependent ATP hydrolysis activity of WRN helicase. This assay was used also to assess the inhibition properties of compounds of the invention on DNA dependent WRN ATPase activity.
The core helicase motif of the WRN protein (aa N517-P1238) was produced for this assay (protein production as described above). […] The ADP-Glo assay kit (Promega, Madison, WI) allowing the quantification of ADP produced in ATP hydrolysis reactions was used for setting up this assay.
Time course experiments were first performed in order to determine the best enzymatic assay conditions (including buffer conditions, reaction time and concentrations of protein, ATP and DNA substrates). A typical reaction consists of 10 nM WRN protein, 0.2 nM FLAP26, and 300 micromolar ATP in the following assay buffer: 30 mM Tris pH7.5, 2 mM MgCl2, 0.02% BSA, 50 mM NaCl, 0.1% pluronic F127 prepared in DNAse free water.
To evaluate the inhibition properties of compounds of the invention, serial dilutions were prepared in DMSO (10 half log dilutions from a 10 mM DMSO solution). […] The reaction was stopped with the addition of 5 microliters of the first ADP-Glo reagent and incubated for one hour to remove the excess amount of ATP. Afterwards, 10 microliters of ATP detection reagent was added and incubated for an additional hour before reading. Luminescence output was recorded using Tecan 1000 reader, with 5 minutes delay before reading. Each concentration of compound was tested in duplicates in the assay plate.
Following normalization of activity values for the wells to % inhibition (% inhibition=[(high control-sample)/(high control-low control)]×100), IC50 fitting was carried out from the duplicate determinations present on each plate according to [4]. Data analysis can also be carried out using commercially available software designed to derive IC50 values using 4-parameter fits (e.g. GraphPad Prism, XL fit). The reported IC50 values are the geometrical means of at least 2 independent replicates.
In general terms: ADP-Glo first removes unused ATP, then detects ADP through luciferase.

For another assay, the system named is DLD1-WRN-KO cells. The assay can be described thus: Proliferation assay DLD1-WRN-KO (CellTiterGlo, off-target effects). It counts as cell-based. The conditions noted are these: 96 hours, geometric mean of at least 2. As for the experimental part:
The WRN-knockdown insensitive colon carcinoma cell line DLD-1 (RRID: CVCL_0248) was obtained from the Korean Cell Line Bank (KCLB), and used to generate a derivative in which the endogenous WRN gene copies were knocked out by CRISPR-mediated editing using standard CRISPR methods. The resulting cell line, DLD1-WRN-KO, was used to assess potential off-target compound effects. […]
Three replicate plates were prepared for each compound treatment condition. In addition, one plate (termed “day 0”) was prepared to quantify the number of viable cells at the time of compound addition. Following overnight incubation at 37° C. in a humidified 5% CO2 atmosphere, eight 3-fold serial dilutions of a given compound stock (obtained at a concentration of 10 mM in DMSO and stored at 4° C.) were dispensed directly into each of the triplicate assay plates using a HP 300D non-contact Digital Dispenser (TECAN). The final concentration of DMSO was normalized to 0.1% in all wells. 96 hours after compound addition, cellular ATP levels as a surrogate for cell viability was assessed following addition of 50 microliters CellTiterGlo (Promega Cat #G7573) reagent and luminescence quantification on a MPLEX multi-mode plate-reader (TECAN) following a 10 minute incubation at room temperature. The number of viable cells in the “day 0” plate were quantified identically on the day of compound addition.
For data analysis, the assay background signal that was determined in wells containing medium, but no cells, was subtracted from all other data points prior to further calculations. The extent of growth inhibition and potential cell kill was assessed by comparing the ATP levels (measured using CellTiterGlo, Promega) in compound-treated cells with those present at the time of compound addition. […] 100%, 0% and −100% signify absence of growth inhibition, growth stasis, and complete cell kill, respectively. Compound concentrations leading to half-maximal growth inhibition (GI50) and residual cell viability at the highest tested compound concentration (Data (cmax), expressed in percent) were routinely calculated. Data analysis can also be carried out using commercially available software designed to derive IC50 values using 4-parameter fits (e.g. GraphPad Prism, XL fit). The reported GI50 values are the geometrical means of at least 2 independent replicates.

T1 sequence (Q14191 517-1238): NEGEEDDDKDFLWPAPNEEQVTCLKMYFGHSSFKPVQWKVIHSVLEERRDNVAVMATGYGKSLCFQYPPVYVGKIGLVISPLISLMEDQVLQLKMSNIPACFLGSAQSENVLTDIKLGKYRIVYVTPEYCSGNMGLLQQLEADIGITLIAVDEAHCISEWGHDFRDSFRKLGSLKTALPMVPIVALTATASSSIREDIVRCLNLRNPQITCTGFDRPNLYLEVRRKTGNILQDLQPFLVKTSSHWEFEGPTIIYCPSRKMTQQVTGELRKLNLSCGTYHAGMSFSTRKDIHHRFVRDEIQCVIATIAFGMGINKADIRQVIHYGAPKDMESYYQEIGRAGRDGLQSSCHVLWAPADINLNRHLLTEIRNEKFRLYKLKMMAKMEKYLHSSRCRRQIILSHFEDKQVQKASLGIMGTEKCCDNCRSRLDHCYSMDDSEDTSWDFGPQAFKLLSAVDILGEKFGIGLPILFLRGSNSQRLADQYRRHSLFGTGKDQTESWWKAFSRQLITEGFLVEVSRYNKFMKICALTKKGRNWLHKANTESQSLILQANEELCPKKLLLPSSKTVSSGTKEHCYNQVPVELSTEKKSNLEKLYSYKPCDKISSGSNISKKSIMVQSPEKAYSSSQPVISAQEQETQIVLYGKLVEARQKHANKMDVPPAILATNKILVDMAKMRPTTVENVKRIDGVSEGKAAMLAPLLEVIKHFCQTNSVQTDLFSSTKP

Broadly, the IC50 is the concentration at which inhibition is half-maximal. Higher therefore signals lower potency. For orientation: GI50 means the concentration giving 50% growth inhibition. A higher GI50 goes with lower sensitivity of the cells. In turn, `CC(=O)N1CCN(c2nc3n(CC(=O)Nc4ccc(Cl)cc4)c(C)c(N4CCN(C(=O)c5nc[nH]c5C#N)CC4)c(=O)n3n2)CC1` [Example 7, 2-(2-(4-acetylpiperazin-1-yl)-6-(4-(5-cyano-1H-imidazole-4-carbonyl)piperazin-1-yl)-5-methyl-7-oxo-[1,2,4]triazolo[1,5-a]pyrimidin-4(7H)-yl)-N-(4-chlorophenyl)acetamide] displayed an IC50 in assay [1] of 0.04 µM. In addition, the GI50 with DLD1-WRN-KO cells was > 10 µM.

Consider `CC(=O)N1CCN(c2nc3n(CC(=O)Nc4ccc(Cl)cc4)c(C)c(N4CCN(C(=O)c5n[nH]c(=O)[nH]5)CC4)c(=O)n3n2)CC1` [Example 8, 2-(2-(4-acetylpiperazin-1-yl)-5-methyl-7-oxo-6-(4-(5-oxo-4,5-dihydro-1H-1,2,4-triazole-3-carbonyl)piperazin-1-yl)-[1,2,4]triazolo[1,5-a]pyrimidin-4(7H)-yl)-N-(4-chlorophenyl)acetamide], for which the concentration for half-maximal inhibition (IC50) in assay [1] is 0.05 µM. The GI50 in the assay with DLD1-WRN-KO cells is > 10 µM.

In the case of `CC(=O)N1CCN(c2nc3n(CC(=O)Nc4ccc(Cl)cc4)c(C)c(N4CCN(C(=O)c5cnon5)CC4)c(=O)n3n2)CC1` [Example 9, 2-(6-(4-(1,2,5-oxadiazole-3-carbonyl)piperazin-1-yl)-2-(4-acetylpiperazin-1-yl)-5-methyl-7-oxo-[1,2,4]triazolo[1,5-a]pyrimidin-4(7H)-yl)-N-(4-chlorophenyl)acetamide], in assay [1], half-maximal inhibition (IC50) required 0.08 µM. Also, the 50% growth inhibitory concentration (GI50) in the assay on DLD1-WRN-KO cells was > 10 µM.

`CC(=O)N1CCN(c2nc3n(CC(=O)Nc4ccc(Cl)cc4)c(C)c(N4CCN(C(=O)c5[nH]c(=O)[nH]c(=O)c5N)CC4)c(=O)n3n2)CC1` [Example 10, 2-(2-(4-acetylpiperazin-1-yl)-6-(4-(5-amino-2,6-dioxo-1,2,3,6-tetrahydropyrimidine-4-carbonyl)piperazin-1-yl)-5-methyl-7-oxo-[1,2,4]triazolo[1,5-a]pyrimidin-4(7H)-yl)-N-(4-chlorophenyl)acetamide]: half-maximal inhibition in assay [1] (IC50) required 0.09 µM. Further, in the assay on DLD1-WRN-KO cells, the GI50 is > 10 µM.

On to `CC(=O)N1CCN(c2c(C)n(CC(=O)Nc3ccc(Cl)c(C(F)(F)F)c3)c3nc(C4=CCN(C(=O)OC(C)(C)C)CC4)nn3c2=O)CC1` [Example 74, tert-butyl 4-(6-(4-acetylpiperazin-1-yl)-4-(2-((4-chloro-3-(trifluoromethyl)phenyl)amino)-2-oxoethyl)-5-methyl-7-oxo-4,7-dihydro-[1,2,4]triazolo[1,5-a]pyrimidin-2-yl)-5,6-dihydropyridine-1(2H)-carboxylate], for which it took 0.2 µM to reach half-maximal inhibition in assay [1] (IC50). The molecule further yielded a concentration for 50% growth inhibition (GI50) in the assay on DLD1-WRN-KO cells of 0.6 µM.

As to `CC(=O)N1CCN(c2c(C)n(CC(=O)Nc3ccc(Cl)c(Cl)c3)c3nc(C4=CCN(C(=O)OC(C)(C)C)CC4)nn3c2=O)CC1` [Example 75, tert-butyl 4-(6-(4-acetylpiperazin-1-yl)-4-(2-((3,4-dichlorophenyl)amino)-2-oxoethyl)-5-methyl-7-oxo-4,7-dihydro-[1,2,4]triazolo[1,5-a]pyrimidin-2-yl)-5,6-dihydropyridine-1(2H)-carboxylate], in assay [1], half-maximal inhibition (IC50) required 0.2 µM. For the same molecule, in the assay on DLD1-WRN-KO cells, the GI50 is 0.9 µM.

`CC(=O)N1CCN(c2c(C)n(CC(=O)Nc3ccc(Cl)c(Cl)c3)c3nc(-c4ccc(CN(C)C(=O)CCN=[N+]=[N-])cc4)nn3c2=O)CC1` [Example 86, N-(4-(6-(4-acetylpiperazin-1-yl)-4-(2-((3,4-dichlorophenyl)amino)-2-oxoethyl)-5-methyl-7-oxo-4,7-dihydro-[1,2,4]triazolo[1,5-a]pyrimidin-2-yl)benzyl)-3-azido-N-methylpropanamide] registered an IC50 in assay [1] of 0.07 µM. Further, the 50% growth inhibitory concentration (GI50) in the assay with DLD1-WRN-KO cells is > 10 µM.

Molecule `CC(=O)N1CCN(c2c(C)n(CC(=O)Nc3ccc(Cl)c(Cl)c3)c3nc(C4=CCN(C(=O)OC5CC/C=C/CCC5)CC4)nn3c2=O)CC1` (stereo not drawn) [Example 93, (E)-cyclooct-4-en-1-yl 4-(6-(4-acetylpiperazin-1-yl)-4-(2-((3,4-dichlorophenyl)amino)-2-oxoethyl)-5-methyl-7-oxo-4,7-dihydro-[1,2,4]triazolo[1,5-a]pyrimidin-2-yl)-3,6-dihydropyridine-1(2H)-carboxylate] yielded an IC50 in assay [1] of 0.7 µM. This molecule also returned a GI50 in the assay with DLD1-WRN-KO cells of 5 µM.

In assay [1], `CC(=O)N1CCN(c2c(C)n(CC(=O)Nc3ccc(C(F)(F)F)cc3)c3nc(N4CCCCC4)nn3c2=O)CC1` [Example 111, 2-(6-(4-acetylpiperazin-1-yl)-5-methyl-7-oxo-2-(piperidin-1-yl)-[1,2,4]triazolo[1,5-a]pyrimidin-4(7H)-yl)-N-(4-(trifluoromethyl)phenyl)acetamide] came in with a concentration for half-maximal inhibition (IC50) of 0.2 µM. Moreover, the GI50 in the assay on DLD1-WRN-KO cells is > 10 µM.

In assay [1], `CCOC(=O)C#Cc1nc2n(CC(=O)Nc3ccc(C(F)(F)F)cc3)c(C)c(N3CCN(C(C)=O)CC3)c(=O)n2n1` [Example 116, ethyl 3-(6-(4-acetylpiperazin-1-yl)-5-methyl-7-oxo-4-(2-oxo-2-((4-(trifluoromethyl)phenyl)amino)ethyl)-4,7-dihydro-[1,2,4]triazolo[1,5-a]pyrimidin-2-yl)propiolate] displayed a concentration for half-maximal inhibition (IC50) of 0.5 µM. For the same molecule, halving of growth in the assay with DLD1-WRN-KO cells (GI50) required 5 µM.

For `CC(=O)N1CCN(c2c(C)n(CC(=O)Nc3ccc(C(F)(F)F)cc3)c3nc(C4=CCC5(CCO5)CC4)nn3c2=O)CC1` (stereo not drawn) [Example 117, 2-(6-(4-acetylpiperazin-1-yl)-5-methyl-7-oxo-2-(1-oxaspiro[3.5]non-6-en-7-yl)-[1,2,4]triazolo[1,5-a]pyrimidin-4(7H)-yl)-N-(4-(trifluoromethyl)phenyl)acetamide], in assay [1], the 50% inhibitory concentration (IC50) was found to be 0.6 µM. In the assay on DLD1-WRN-KO cells, the concentration for 50% growth inhibition (GI50) was > 10 µM.

Regarding `CC(=O)N1CCC(c2c(C)n(CC(=O)Nc3ccc(C(F)(F)F)cc3)c3nc(-c4ccccc4)nn3c2=O)CC1` [Example 143, 2-(6-(1-acetylpiperidin-4-yl)-5-methyl-7-oxo-2-phenyl-[1,2,4]triazolo[1,5-a]pyrimidin-4(7H)-yl)-N-(4-(trifluoromethyl)phenyl) acetamide], the GI50 with DLD1-WRN-KO cells was > 10 µM.

In the case of `COc1cc(F)cc(C(=O)N2CCN(c3c(C)n(CC(=O)Nc4ccc(C(F)(F)F)cc4)c4nc(C5=CCOCC5)nn4c3=O)CC2)c1N` [Example 153, 2-(6-(4-(2-amino-5-fluoro-3-methoxybenzoyl)piperazin-1-yl)-2-(3,6-dihydro-2H-pyran-4-yl)-5-methyl-7-oxo-[1,2,4]triazolo[1,5-a]pyrimidin-4(7H)-yl)-N-(4-(trifluoromethyl)phenyl)acetamide], in assay [1], the half-inhibitory concentration (IC50) stood at 0.1 µM. The molecule also had a GI50 with DLD1-WRN-KO cells of 5 µM.

As for `Cc1c(N2CCN(C(=O)c3n[nH]c4ccccc34)CC2)c(=O)n2nc(C3=CCOCC3)nc2n1CC(=O)Nc1ccc(C(F)(F)F)cc1` [Example 154, 2-(6-(4-(1H-indazole-3-carbonyl)piperazin-1-yl)-2-(3,6-dihydro-2H-pyran-4-yl)-5-methyl-7-oxo-[1,2,4]triazolo[1,5-a]pyrimidin-4(7H)-yl)-N-(4-(trifluoromethyl)phenyl)acetamide], half-maximal inhibition in assay [1] (IC50) required 0.1 µM. Further, the concentration for 50% growth inhibition (GI50) in the assay with DLD1-WRN-KO cells is 8 µM.
